Test results published in publication PMC8548355 (Medicinal Chemistry Research, 2021).
≈ marks a conversion by molar mass, not a printed value. Blank lines part the entries; values can stand above or below the molecule they belong to.

Columns and labels:
[1] = test system: K. pneumoniae BAA 1705; assay: MIC by broth microdilution against K. pneumoniae BAA 1705; format: cell-based; conditions: Klebsiella pneumoniae, BAA1705, read-out: MIC against K. pneumoniae BAA 1705
[2] = test system: S. aureus ATCC 29213; assay: MIC by broth microdilution against S. aureus ATCC 29213; format: cell-based, Staphylococcus aureus; conditions: for MIC: Staphylococcus aureus, ATCC29213, read-out: MIC against S. aureus ATCC 29213, broth microdilution, 37 °C, 16–18 h
[3] = test system: E. coli ATCC 25922; assay: MIC by broth microdilution against E. coli ATCC 25922; format: cell-based; conditions: Escherichia coli, ATCC25922, read-out: MIC against E. coli ATCC 25922
[4] = test system: A. baumannii BAA 1605; assay: MIC by broth microdilution against A. baumannii BAA 1605; format: cell-based; conditions: Acinetobacter baumannii, BAA1605, read-out: MIC against A. baumannii BAA 1605
[5] = test system: MRSA NRS 10119; assay: MIC against clinical MRSA isolate NRS 10119; format: cell-based; conditions: Staphylococcus aureus, MRSA|NRS10119, read-out: MIC against MRSA NRS 10119
[6] = test system: VRSA VRS 4; assay: MIC against clinical VRSA isolate VRS 4; format: cell-based; conditions: Staphylococcus aureus, read-out: MIC against VRSA VRS 4
[7] = test system: MRSA NRS 10100; assay: MIC against clinical MRSA isolate NRS 10100; format: cell-based; conditions: Staphylococcus aureus, MRSA|NRS10100, read-out: MIC against MRSA NRS 10100
[8] = test system: clinical MDR S. aureus isolates (MRSA and VRSA); assay: MIC against clinical MDR S. aureus isolates, whole panel; format: cell-based, Staphylococcus aureus; conditions: nine MRSA and three VRSA strains
[9] = test system: MRSA NRS 10186; assay: MIC against clinical MRSA isolate NRS 10186; format: cell-based; conditions: Staphylococcus aureus, MRSA|NRS10186, read-out: MIC against MRSA NRS 10186
[10] = test system: MRSA NRS 10198; assay: MIC against clinical MRSA isolate NRS 10198; format: cell-based; conditions: Staphylococcus aureus, MRSA|NRS10198, read-out: MIC against MRSA NRS 10198
[11] = test system: VRSA VRS 1; assay: MIC against clinical VRSA isolate VRS 1; format: cell-based; conditions: Staphylococcus aureus, read-out: MIC against VRSA VRS 1
[12] = test system: MRSA NRS 10192; assay: MIC against clinical MRSA isolate NRS 10192; format: cell-based; conditions: Staphylococcus aureus, MRSA|NRS10192, read-out: MIC against MRSA NRS 10192
[13] = test system: MRSA NRS 10129; assay: MIC against clinical MRSA isolate NRS 10129; format: cell-based; conditions: Staphylococcus aureus, MRSA|NRS10129, read-out: MIC against MRSA NRS 10129
[14] = test system: MRSA NRS 10194; assay: MIC against clinical MRSA isolate NRS 10194; format: cell-based; conditions: Staphylococcus aureus, MRSA|NRS10194, read-out: MIC against MRSA NRS 10194
[15] = test system: MRSA NRS 10191; assay: MIC against clinical MRSA isolate NRS 10191; format: cell-based; conditions: Staphylococcus aureus, MRSA|NRS10191, read-out: MIC against MRSA NRS 10191
[16] = test system: MRSA NRS 10193; assay: MIC against clinical MRSA isolate NRS 10193; format: cell-based; conditions: Staphylococcus aureus, MRSA|NRS10193, read-out: MIC against MRSA NRS 10193
[17] = test system: VRSA VRS 12; assay: MIC against clinical VRSA isolate VRS 12; format: cell-based; conditions: Staphylococcus aureus, read-out: MIC against VRSA VRS 12
[18] = test system: S. aureus ATCC 29213; assay: Drug interaction of 22 with FDA-approved drugs, checkerboard method; format: cell-based, Staphylococcus aureus; conditions: for MIC of drug in the presence of “22” “B”: S. aureus ATCC 29213, checkerboard, in combination with 22; for MIC: Staphylococcus aureus, ATCC29213, 24 h, read-out: MIC (drug alone); for Inference (drug interaction): combination of 22 with the drug, S. aureus ATCC 29213

SMILES: O=C(Nc1ccc(Cl)c(C(F)(F)F)c1)c1cc(Cl)ccc1O [Compound 20, 5-Chloro-N-(4ʹ-chloro-3ʹ-(trifluoromethyl)phenyl)-2-hydroxybenzamide]
MIC [5]: 0.5 µg/mL (≈ 1.43 µM)
MIC [6]: 0.25 µg/mL (≈ 0.714 µM)
MIC [1]: > 64 µg/mL
MIC [7]: 0.5 µg/mL (≈ 1.43 µM)
MIC against MRSA and VRSA isolates (range over the panel) [8]: 0.25 to 0.5 µg/mL
MIC [9]: 0.5 µg/mL (≈ 1.43 µM)
MIC [2]: 0.25 µg/mL (≈ 0.714 µM)
MIC [10]: 0.5 µg/mL (≈ 1.43 µM)
MIC [11]: 0.5 µg/mL (≈ 1.43 µM)
MIC [3]: > 64 µg/mL
MIC [12]: 0.5 µg/mL (≈ 1.43 µM)
MIC [13]: 0.5 µg/mL (≈ 1.43 µM)
MIC [14]: 0.5 µg/mL (≈ 1.43 µM)
MIC [15]: 0.5 µg/mL (≈ 1.43 µM)
MIC [16]: 0.5 µg/mL (≈ 1.43 µM)
MIC [17]: 0.5 µg/mL (≈ 1.43 µM)
MIC [4]: > 64 µg/mL

SMILES: O=C(Nc1ccc(Cl)cc1)c1cc(Cl)ccc1O [Compound 24, 5-Chloro-N-(4ʹ-chlorophenyl)-2-hydroxybenzamide]
MIC [5]: 0.25 µg/mL (≈ 0.886 µM)
MIC [6]: 0.5 µg/mL (≈ 1.77 µM)
MIC [1]: > 64 µg/mL
MIC [7]: 0.5 µg/mL (≈ 1.77 µM)
MIC against MRSA and VRSA isolates (range over the panel) [8]: 0.25 to 0.5 µg/mL
MIC [9]: 0.5 µg/mL (≈ 1.77 µM)
MIC [2]: 0.5 µg/mL (≈ 1.77 µM)
MIC [10]: 0.5 µg/mL (≈ 1.77 µM)
MIC [11]: 0.5 µg/mL (≈ 1.77 µM)
MIC [3]: > 64 µg/mL
MIC [12]: 0.5 µg/mL (≈ 1.77 µM)
MIC [13]: 0.5 µg/mL (≈ 1.77 µM)
MIC [14]: 0.5 µg/mL (≈ 1.77 µM)
MIC [15]: 0.5 µg/mL (≈ 1.77 µM)
MIC [16]: 0.5 µg/mL (≈ 1.77 µM)
MIC [17]: 0.5 µg/mL (≈ 1.77 µM)
MIC [4]: > 64 µg/mL

SMILES: CCCCCCCCCC(=O)N[C@@H](Cc1c[nH]c2ccccc12)C(=O)N[C@H](CC(N)=O)C(=O)N[C@@H](CC(=O)O)C(=O)N[C@@H]1C(=O)NCC(=O)N[C@@H](CCCN)C(=O)N[C@@H](CC(=O)O)C(=O)N[C@H](C)C(=O)N[C@@H](CC(=O)O)C(=O)NCC(=O)N[C@H](CO)C(=O)N[C@@H]([C@H](C)CC(=O)O)C(=O)N[C@@H](CC(=O)c2ccccc2N)C(=O)O[C@@H]1C [Daptomycin]
MIC of drug in the presence of “22” “B” [18]: 1 µg/mL
MIC [18]: 1 µg/mL
Inference (drug interaction) [18]: No interaction

SMILES: CNC(C)C1CCC(N)C(OC2C(N)CC(N)C(OC3OCC(C)(O)C(NC)C3O)C2O)O1 (centres unmarked) [Gentamicin]
MIC of drug in the presence of “22” “B” [18]: 0.25 µg/mL
MIC [18]: 0.5 µg/mL
Inference (drug interaction) [18]: No interaction

SMILES: CC(=O)NC[C@H]1CN(c2ccc(N3CCOCC3)c(F)c2)C(=O)O1 [Linezolid]
MIC of drug in the presence of “22” “B” [18]: 0.5 µg/mL
MIC [18]: 2 µg/mL
Inference (drug interaction) [18]: No interaction

SMILES: C[C@@H](O)[C@H]1C(=O)N2C(C(=O)O)=C(S[C@@H]3CN[C@H](C(=O)N(C)C)C3)[C@H](C)[C@H]12 [Meropenem, reference compound]
MIC [5]: > 64 µg/mL
MIC [6]: > 64 µg/mL
MIC [7]: 64 µg/mL (≈ 167 µM)
MIC [9]: 16 µg/mL (≈ 41.7 µM)
MIC [10]: > 64 µg/mL
MIC [11]: > 64 µg/mL
MIC [12]: 32 µg/mL (≈ 83.4 µM)
MIC of drug in the presence of “22” “B” [18]: 0.5 µg/mL
MIC [18]: 0.5 µg/mL
Inference (drug interaction) [18]: No interaction
MIC [13]: 16 µg/mL (≈ 41.7 µM)
MIC [14]: 4 µg/mL (≈ 10.4 µM)
MIC [15]: > 64 µg/mL
MIC [16]: > 64 µg/mL
MIC [17]: 16 µg/mL (≈ 41.7 µM)

SMILES: COc1cccc(OC)c1C(=O)N[C@@H]1C(=O)N2[C@@H]1SC(C)(C)[C@@H]2C(=O)O [Methicillin, reference compound]
MIC [5]: > 64 µg/mL
MIC [6]: > 64 µg/mL
MIC [7]: > 64 µg/mL
MIC [9]: 64 µg/mL (≈ 168 µM)
MIC [10]: > 64 µg/mL
MIC [11]: > 64 µg/mL
MIC [12]: > 64 µg/mL
MIC [13]: 32 µg/mL (≈ 84.1 µM)
MIC [14]: 32 µg/mL (≈ 84.1 µM)
MIC [15]: > 64 µg/mL
MIC [16]: > 64 µg/mL
MIC [17]: > 64 µg/mL

SMILES: CN(C)c1ccc(O)c2c1C[C@H]1C[C@H]3[C@H](N(C)C)C(O)=C(C(N)=O)C(=O)[C@@]3(O)C(O)=C1C2=O [Minocycline]
MIC of drug in the presence of “22” “B” [18]: 0.125 µg/mL
MIC [18]: 0.125 µg/mL
Inference (drug interaction) [18]: No interaction

SMILES: CO[C@H]1/C=C/O[C@@]2(C)Oc3c(C)c(O)c4c(O)c(c(/C=N/N5CCN(C)CC5)c(O)c4c3C2=O)NC(=O)/C(C)=C\C=C\[C@H](C)[C@H](O)[C@@H](C)[C@@H](O)[C@@H](C)[C@H](OC(C)=O)[C@@H]1C [Rifampicin]
Inference (drug interaction) [18]: No interaction

The remaining lines, values ahead:

MIC [1]: > 64 µg/mL
MIC [2]: 32 µg/mL (≈ 116 µM)
MIC [3]: > 64 µg/mL
MIC [4]: > 64 µg/mL
SMILES: O=C(Nc1ccc(F)cc1[N+](=O)[O-])c1ccccc1O [Compound 15, N-(4ʹ-fluoro-2ʹ-nitrophenyl)-2-hydroxybenzamide]

MIC [1]: > 64 µg/mL
MIC [2]: 3.88 µg/mL (≈ 12.5 µM)
MIC against S. aureus ATCC 29213 ([2]; broth microdilution, 37 °C, 16–18 h): 4 µg/mL (≈ 12.9 µM)
MIC [3]: > 64 µg/mL
MIC [4]: > 64 µg/mL
SMILES: O=C(Nc1ccc(F)cc1[N+](=O)[O-])c1cc(Cl)ccc1O [Compound 16, 5-Chloro-N-(4ʹ-fluoro-2ʹ-nitrophenyl)-2-hydroxybenzamide]

MIC [2]: 2 µg/mL (≈ 7.24 µM)
SMILES: O=C(Nc1ccc([N+](=O)[O-])cc1F)c1ccccc1O [Compound 17, N-(2ʹ-fluoro-4ʹ-nitrophenyl)-2-hydroxybenzamide]

MIC [1]: > 64 µg/mL
MIC [2]: 1 µg/mL (≈ 3.22 µM)
MIC [3]: > 64 µg/mL
MIC [4]: > 64 µg/mL
SMILES: O=C(Nc1ccc([N+](=O)[O-])cc1F)c1cc(Cl)ccc1O [Compound 18, 5-Chloro-N-(2ʹ-fluoro-4ʹ-nitrophenyl)-2-hydroxybenzamide]

MIC [1]: > 64 µg/mL
MIC [2]: 1 µg/mL (≈ 3.17 µM)
MIC [3]: > 64 µg/mL
MIC [4]: > 64 µg/mL
SMILES: O=C(Nc1ccc(Cl)c(C(F)(F)F)c1)c1ccccc1O [Compound 19, N-(4ʹ-chloro-3ʹ-(trifluoromethyl)phenyl)-2-hydroxybenzamide]
